Here are results for eight compounds from ChEMBL document CHEMBL1201862, “PubChem BioAssay data set” (2004).

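Interpolation was linear, between the two tested concentrations surrounding the appropriate level; five concentrations were tested over 48 hours in 96-well plates. GI50 = concentration required for 50% inhibition of growth.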 The source made the active and inactive calls. No stated cut-off is given here; in the data, active = GI50 up to about 1.1 µM and inactive = higher. A value given as a limit tells only on which side of the number the result lay.

What all share (experiment): DTP human tumour cell line panel, 48 h
The test system of assay [1] is RXF 393.
For assay [2], the system named is HOP-62.
Assay [3] relates to NCI-H226.
Assay [4] deals with Hs-578T.
In assay [5] the test system is HOP-92.
The subject of assay [6] is NCI-H460.
Assay [7] relates to T47D.
Assay [8] relates to SK-MEL-2.
The test system of assay [9] is 786-0.
The subject of assay [10] is OVCAR-4.
In assay [11] the test system is SF-268.
Assay [12] concerns SK-OV-3.
Assay [13] has as its system NCI/ADR-RES.
Assay [14] has as its system TK-10.
In assay [15] the test system is SF-539.
Assay [16] has as its system EKVX.
Assay [17] relates to IGROV-1.
The subject of assay [18] is SK-MEL-28.
Assay [19] deals with HCT-15.
Assay [20] has as its system M14.

Take `CC(/C=N/N(C)C1=NCCCCN1)=N/N(C)C1=NCCCCN1`: the GI50 in assay [1], in assay [2], in [3], in assay [4], in assay [5] and in [6] was > 100 µM (inactive) in each case. For the same compound, the GI50 in assay [7], in assay [8], in assay [9], in [10], in assay [11] and in assay [12] was > 100 µM (inactive) throughout. For the same compound, the GI50 in [13], in assay [14], in assay [15], in [16], in [17] and in assay [18] was > 100 µM (inactive) each time. In addition, the concentration for 50% growth inhibition (GI50) (commonly the concentration that inhibits growth by half) in assay [19] was above 100 µM.

On to `O=c1ccn(C2OC(CN(O)CCC3C(CO)OC(n4ccc(=O)[nH]c4=O)C3O)C(O)C2O)c(=O)[nH]1` (configuration not stated), for which the GI50 in [1], in assay [2], in assay [3], in [4], in assay [5] and in assay [6] was > 100 µM (inactive) throughout. The GI50 in assay [7], in assay [8], in [9], in [10], in [11] and in assay [12] was > 100 µM (inactive) in each case. The GI50 in [13], in assay [14], in assay [16], in [17], in assay [20] and in assay [18] was > 100 µM (inactive) throughout. In assay [19], this compound yielded a GI50 above 100 µM.

For `COc1cc(S(=O)(=O)Nc2ccc(-c3csc(N4C(=O)C(C)SC4c4ccccc4)n3)cc2)ccc1Cl` (configuration not stated), the GI50 in [1] is 15.5 µM (inactive); in assay [3], 0.0853 µM (active); in [4], 0.794 µM (active); in assay [5], 31.9 µM (inactive); in assay [7], 15.2 µM (inactive); in [8], 0.979 µM (active). Besides, the GI50 is 20 µM (inactive) in assay [9]; 39.6 µM (inactive) in assay [10]; 19.7 µM (inactive) in assay [11]; > 100 µM (inactive) in assay [13]; 13.4 µM (inactive) in [15]; 7.52 µM (inactive) in assay [16]. Also, the GI50 in [17] was 17.5 µM (inactive); in assay [20], > 100 µM (inactive); in assay [18], 24.7 µM (inactive); in assay [19] it was above 100 µM.

For `N#CCCC(C=O)(CCC#N)CCC#N`, the GI50 in assay [1], in [3], in assay [4], in assay [5], in [6] and in assay [7] was > 100 µM (inactive) throughout. Also, the GI50 in assay [8], in assay [9], in assay [10], in assay [11], in assay [12] and in assay [13] was > 100 µM (inactive) each time. Further, the GI50 in assay [14], in assay [15], in assay [16], in assay [17], in assay [20] and in assay [18] was > 100 µM (inactive) each time. In assay [19], this compound gave a 50% growth inhibitory concentration (GI50) above 100 µM.

`Clc1ccc(C2=NCON=C2c2ccc(Cl)cc2)cc1`: the GI50 in assay [1] is 18.7 µM (inactive); in assay [2], 25.6 µM (inactive); in assay [3] it was 14.5 µM (inactive); in assay [4], 13.8 µM (inactive); in [5], 18.4 µM (inactive); in assay [6] it was 19.7 µM (inactive). Also, the GI50 in assay [7] is 0.71 µM (active); in assay [8] it was 19.9 µM (inactive); in [9], 19.7 µM (inactive); in assay [10], 27.4 µM (inactive); in assay [11], 19.7 µM (inactive); in [12] it was 14.5 µM (inactive). The GI50 is 21.5 µM (inactive) in assay [13]; 23.9 µM (inactive) in [14]; 15.3 µM (inactive) in [15]; 15.1 µM (inactive) in assay [16]; 19.4 µM in assay [19].

With `C/C(=N/NC(=S)Nc1cccc(Cl)c1)c1cccc(/C(C)=N\NC(=S)Nc2cccc(Cl)c2)n1`, the GI50 in [1] was 2.38 µM (inactive); in [2], 1.15 µM (inactive); in [3] it was 0.998 µM (active); in assay [4], > 23.8 µM (inactive); in assay [5] it was 3.65 µM (inactive); in [6], 2.01 µM (inactive). In addition, the GI50 is 3.48 µM (inactive) in [7]; 3.73 µM (inactive) in [8]; 0.893 µM (active) in assay [9]; 5.14 µM (inactive) in [10]; 4.22 µM (inactive) in assay [12]; 1.09 µM (active) in assay [13]. In addition, the GI50 in assay [14] was 2.02 µM (inactive); in [15], 0.597 µM (active); in assay [16] it was 3.44 µM (inactive); in [17], 2.03 µM (inactive); in [20], 1.62 µM (inactive); in assay [18], > 100 µM (inactive). This compound also had a GI50 in assay [19] of 2.49 µM.

In the case of `O=c1cc(-c2cccnc2)[nH]c2cc3c(cc12)OCO3`, the GI50 in assay [1] was 9.02 µM (inactive); in assay [2] it was 7.5 µM (inactive); in assay [3], 18.8 µM (inactive); in assay [4] it was 11.3 µM (inactive); in assay [5], 13.5 µM (inactive); in assay [6] it was 10.8 µM (inactive). For the same compound, the GI50 was > 100 µM (inactive) in assay [7]; 8.04 µM (inactive) in assay [8]; 33.3 µM (inactive) in assay [9]; > 73.3 µM (inactive) in assay [10]; 12.9 µM (inactive) in assay [11]; > 20.9 µM (inactive) in assay [12]. Further, the GI50 in assay [13] is 14.8 µM (inactive); in assay [14] it was 41.6 µM (inactive); in assay [15] it was 5.58 µM (inactive); in assay [17], 4.47 µM (inactive); in assay [20], 4.59 µM (inactive); in assay [18] it was 6.18 µM (inactive). In assay [19], the GI50 was 3.9 µM.

For `CCCCCCCCC/C=C1\CC(CO)(COC(=O)C2CCCCC2)OC1=O` (configuration not stated), the GI50 in assay [1] was 20.2 µM (inactive); in [2], 13.4 µM (inactive); in assay [3] it was 23.3 µM (inactive); in assay [4], 16.4 µM (inactive); in assay [5], 8.17 µM (inactive); in [6], 14.5 µM (inactive). Further, the GI50 was 20.9 µM (inactive) in assay [7]; 18.2 µM (inactive) in assay [8]; 14.9 µM (inactive) in assay [9]; 22.8 µM (inactive) in [10]; 20.4 µM (inactive) in assay [11]; 25.8 µM (inactive) in [12]. Moreover, the GI50 is 17 µM (inactive) in assay [13]; 21.3 µM (inactive) in assay [14]; 17.9 µM (inactive) in [16]; 20.2 µM (inactive) in [17]; 18.6 µM (inactive) in assay [20]; 15.6 µM (inactive) in assay [18]. Also, the GI50 in assay [19] was 23.2 µM.
